Laboratory results published in paper PMC10762035, “Molecular basis of human trace amine-associated receptor 1 activation” (Nature Communications, 2024).
Where a chain is given by its changes, count along the chain named. Several values for one entry are separate records, joined by “and”; a condition that tells them apart may be missing. Equal values may be shown once. Read-outs that look alike come from different tables or passages of the source.

Assays:
Type in all cases: cell-based
hTA1 I290N = target: T1, hTA1 I290N (Homo sapiens, UniProt Q96RJ0, I290N); assay: GloSensor cAMP accumulation assay, I290N mutant;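 also: cells transiently co-expressing hTA1 and the GloSensor cAMP biosensor, luminescence read 30 min after compound addition at room temperature, efficacy scaled to the maximal β-PEA response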
T1 construct: expressed in transfected cells; host or cells: HEK293T
T1 sequence (Q96RJ0 1-339 I290N): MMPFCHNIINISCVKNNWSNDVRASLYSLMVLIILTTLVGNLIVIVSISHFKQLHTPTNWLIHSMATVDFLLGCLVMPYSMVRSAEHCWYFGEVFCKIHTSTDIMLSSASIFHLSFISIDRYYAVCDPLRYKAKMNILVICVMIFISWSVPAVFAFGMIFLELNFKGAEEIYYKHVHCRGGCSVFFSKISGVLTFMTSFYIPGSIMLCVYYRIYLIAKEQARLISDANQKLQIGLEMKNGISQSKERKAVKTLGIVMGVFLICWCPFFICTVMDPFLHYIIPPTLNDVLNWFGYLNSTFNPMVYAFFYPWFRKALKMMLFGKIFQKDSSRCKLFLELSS

[1] = target: T2, β2AR-Nterm-hTA1-F112^3.41W (CryoEM Construct) (Homo sapiens, UniProt Q96RJ0, F112W); assay: GloSensor cAMP accumulation assay, cryoEM construct;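 also: cells transiently co-transfected with the receptor construct and GloSensor cAMP biosensor, luminescence read after 30 min compound exposure at room temperature in the dark as cAMP accumulation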;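 as to Normalized Luminescence Counts (N=2): normalized to the maximum response of β-PEA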
T2 construct: FLAG (N); 10xHis (N); TEV protease site (N); expressed in transfected cells; host or cells: HEK293T

hTA1 C96S = target: T3, hTA1 C96S (Homo sapiens, UniProt Q96RJ0, C96S); assay: GloSensor cAMP accumulation assay, C96S mutant; conditions: log[Compound]
T3 construct: expressed in transfected cells; host or cells: HEK293T
T3 sequence (Q96RJ0 1-339 C96S): T1 sequence (Q96RJ0 1-339 I290N) with C96S, N290I

hTA1 C13S = target: T4, hTA1 C13S (Homo sapiens, UniProt Q96RJ0, C13S); assay: GloSensor cAMP accumulation assay, C13S mutant; conditions: for C13S - Normalized Luminescence Counts (N=2): log[Compound], single wells
T4 construct: expressed in transfected cells; host or cells: HEK293T
T4 sequence (Q96RJ0 1-339 C13S): T1 sequence (Q96RJ0 1-339 I290N) with C13S, N290I

hTA1 = target: T5, hTA1 (Homo sapiens, UniProt Q96RJ0); assay: GloSensor cAMP accumulation assay, concentration response, wild-type hTA1 in transfected HEK293T cells; conditions: for Emax: HEK-293T; for Dose-response curves for asenapine vs endogenous trace amines: log[Compound], replicate values (N=2);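 as to all read-outs here: luminescence read after 30 min compound exposure at room temperature in cells preloaded with D-Luciferin, reflecting Gs-driven cAMP rise, efficacy scaled to the maximal β-PEA response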
T5 construct: expressed in transfected cells; host or cells: HEK293T
T5 sequence (Q96RJ0 1-339): T1 sequence (Q96RJ0 1-339 I290N) with N290I

[2] = Cryo EM Construct minus WT average

T2 sequence (Q96RJ0 with tags, fused parts or gaps F112W): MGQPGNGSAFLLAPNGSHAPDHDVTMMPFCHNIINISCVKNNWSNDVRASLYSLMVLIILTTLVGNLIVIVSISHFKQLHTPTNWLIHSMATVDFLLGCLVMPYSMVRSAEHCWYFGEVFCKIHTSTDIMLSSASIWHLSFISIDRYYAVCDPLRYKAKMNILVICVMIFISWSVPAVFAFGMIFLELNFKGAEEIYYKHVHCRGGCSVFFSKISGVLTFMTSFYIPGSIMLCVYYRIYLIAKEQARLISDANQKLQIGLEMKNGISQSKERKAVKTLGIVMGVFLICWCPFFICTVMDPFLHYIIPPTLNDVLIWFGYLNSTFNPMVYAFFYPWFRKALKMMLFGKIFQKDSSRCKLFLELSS

In the case of `NCCc1ccc(O)cc1` [TYR, tyramine], the EC50 (hTA1 I290N; I290N, n=2, read-out: EC50) is reported as 492 nM, the Emax (hTA1 I290N; I290N, n=2, read-out: Span ± SEM (Emax normalized to β-PEA)) is reported as 99.42 ± 0.19% and the “cAMP accumulation response, single replicate values (source data, Supplementary Figure 5)” value (hTA1 I290N; hTA1 I290N (N=2), log[Compound], M = -5) is reported as 84.4195 and 103.709 and 90.7072 and 91.6949. The “ΔpEC50 values (each mutant value - WT average), Mean” value (hTA1 I290N; hTA1 I290N mutant minus WT average) was -0.07565 and -0.07195, the EC50 (hTA1 I290N; hTA1 I290N mutant, Figure 3B source data, each grid row a separate experiment, 3 replicates, read-out: pEC50 values (Mean) (converted)) was 494 nM and 490 nM and the “Emax values, Mean” value (hTA1 I290N; hTA1 I290N mutant, β-PEA set to 100, each grid row a separate experiment, 3 replicates) was 99.2249. For the same compound, the Emax (hTA1 I290N; hTA1 I290N mutant, β-PEA set to 100, each grid row a separate experiment, 3 replicates, read-out: Emax values (Mean)) was 99.6%, the “ΔEmax values (each mutant value - WT average), Mean” value [1, 2] was 14.87 and 14.1384 and the “ΔpEC50 values (each mutant value - WT average), Mean” value [1, 2] was 0.1106 and 0.3686. For the same compound, the “Emax values, Mean” value ([1]; Cryo EM Construct, mean of each independent experiment (3 replicates)) was 0.3686, the EC50 ([1]; Cryo EM Construct, mean of each independent experiment (3 replicates), read-out: pEC50 values, Mean (converted)) was 322 nM and 178 nM and the “Normalized Luminescence Counts (N=2)” value ([1]; CryoEM Construct, log[Compound], M = -5, single replicates) was 108.729 and 109.99 and 112.27 and 114.944. It also gave an EC50 ([1]; CryoEM Construct, n=2, read-out: EC50) of 235 nM, an Emax ([1]; CryoEM Construct, n=2, read-out: Span ± SEM (Emax normalized to β-PEA)) of 113 ± 2.5% and an EC50 ([1]; CryoEM Construct, n=2, read-out: pEC50 ± SEM (converted)) of 240 nM. For the same compound, the “Normalized Luminescence Counts” value (hTA1 C96S; C96S, M = -5, single replicates (N=2)) was 1.4045 and 3.382 and -0.5726 and -0.7614 and 6.985 and 24.4145, the “Normalized Luminescence Counts” value (hTA1 C96S; C96S, M = -5.522, single replicates (N=2)) was 0.08646 and 2.064 and -0.5726 and 5.048 (2×) and 10.8582 and the “Normalized Luminescence Counts” value (hTA1 C96S; C96S, M = -6, single replicates (N=2)) was -1.891 and 1.4045 and -2.55 and -0.7614 and 5.048 and -8.508. For the same compound, the “Normalized Luminescence Counts” value (hTA1 C96S; C96S, M = -6.522, single replicates (N=2)) was -0.5726 and -3.209 and -2.55 and -6.571 (2×) and -2.698, the “Normalized Luminescence Counts” value (hTA1 C96S; C96S, M = -7, single replicates (N=2)) was 0.08646 and 0.7455 and -2.55 and -0.7614 and -4.6346 and -2.698 and the “Normalized Luminescence Counts” value (hTA1 C96S; C96S, M = -7.522, single replicates (N=2)) was -1.232 and -0.5726 and 0.7455 and 1.175 and -2.698 and 3.112. The “Normalized Luminescence Counts” value (hTA1 C96S; C96S, M = -8, single replicates (N=2)) was 2.064 and 0.7455 and -0.5726 and 3.112 and 24.4145 and -12.381, the “Normalized Luminescence Counts” value (hTA1 C96S; C96S, M = -8.522, single replicates (N=2)) was -1.891 and 0.08646 and -1.232 and 6.985 and 10.8582 and 12.7948 and the “Normalized Luminescence Counts” value (hTA1 C96S; C96S, M = -9, single replicates (N=2)) was -1.232 and -0.5726 and -1.891 and 1.175 and -4.6346 and 6.985. For the same compound, the “Normalized Luminescence Counts” value (hTA1 C96S; C96S, M = -9.522, single replicates (N=2)) was -3.209 and -0.5726 and -3.868 and 8.922 and 55.4002 and 6.985, the “Normalized Luminescence Counts” value (hTA1 C96S; C96S, M = -10, single replicates (N=2)) was -1.232 and 0.08646 (2×) and 5.048 and 3.112 and 12.7948 and the “Normalized Luminescence Counts” value (hTA1 C96S; C96S, M = -10.522, single replicates (N=2)) was -0.5726 and 2.064 and 0.08646 and 6.985 and -4.6346 and -0.7614. The “Normalized Luminescence Counts” value (hTA1 C96S; C96S, M = -11, single replicates (N=2)) was 0.7455 and 2.723 and -1.232 and 3.112 (2×) and 10.8582, the “Normalized Luminescence Counts” value (hTA1 C96S; C96S, M = -11.522, single replicates (N=2)) was -0.5726 and 3.382 and -2.55 and -8.508 and the “Normalized Luminescence Counts” value (hTA1 C96S; M = -11.522, single replicates, mutant block above C178S) was -0.1784 and -0.1556 and -0.3377 and 0.3752 and 3.634 and 2.245. The “Normalized Luminescence Counts” value (hTA1 C96S; M = -12, single replicates, mutant block above C178S) was 0.04925 and -0.1556 and -0.3149 and 0.2684 and 2.352 and 1.711, the “Normalized Luminescence Counts” value (hTA1 C96S; M = -12.522, single replicates, mutant block above C178S) was -0.4515 and -0.588 and -0.5653 and 1.283 and 1.3903 and 1.07 and the “ΔpEC50 values (each mutant value - WT average)” value (hTA1 C13S; C13S) was -0.3688 and -0.3329. It also gave an Emax values (hTA1 C13S; C13S, Mean of fit per experiment) of 110.911, an Emax (hTA1 C13S; C13S, Mean of fit per experiment, read-out: Emax values) of 93.7% and an EC50 (hTA1 C13S; C13S, n=2, read-out: EC50) of 931 nM. For the same compound, the Emax (hTA1 C13S; C13S, n=2, read-out: Span ± SEM (Emax normalized to β-PEA)) was 102 ± 8.61%, the EC50 (hTA1 C13S; hTA1 C13S, mean of 3 replicates, one line per independent experiment, read-out: pEC50 values, Mean (converted)) was 970 nM and 893 nM and the “C13S - Normalized Luminescence Counts (N=2)” value (hTA1 C13S; M = -5) was 78.8304 and 97.2912 and 83.436 and 97.1609 and 112.12 and 105.729. The “C13S - Normalized Luminescence Counts (N=2)” value (hTA1 C13S; M = -5.522) was 59.6843 and 75.6711 and 68.2867 and 72.4375 and 86.5575 and 83.5764, the “C13S - Normalized Luminescence Counts (N=2)” value (hTA1 C13S; M = -6) was 42.8222 and 56.3728 and 40.1958 and 58.5139 and 61.7985 and 54.8367 and the “C13S - Normalized Luminescence Counts (N=2)” value (hTA1 C13S; M = -6.522) was 23.1813 and 24.6658 and 21.4304 and 27.8641 and 32.7195 and 30.988. For the same compound, the Emax (hTA1) was 99%, the Emax (hTA1; WT hTA1, β-PEA = 100, average of the two experiments, read-out: Emax values, Avg) was 99% and the Emax (hTA1; WT hTA1, β-PEA = 100, each line an independent experiment, 3 replicates, read-out: Emax values (Mean)) was 98.7%. The “Emax values, Mean” value (hTA1; WT hTA1, β-PEA = 100, each line an independent experiment, 3 replicates) was 99.2414, the “Emax values, Avg” value (hTA1; WT, average of the experiments, β-PEA = 100) was 98.98 and the “Emax values, Avg” value (hTA1; WT, average of the two experiments) was 98.98. For the same compound, the “Emax values, Mean” value (hTA1; WT, mean of each independent experiment (3 replicates), β-PEA = 100) was 98.7253 and 99.2414, the “Emax values, Mean” value (hTA1; WT, single experiments (3 replicates each), β-PEA = 100) was 98.7253 and 99.2414 and the “Dose-response curves for asenapine vs endogenous trace amines” value (hTA1; M = -5) was 87.8798 and 96.6135 and 100.84 and 85.1295 and 110.033 and 96.1011. For the same compound, the “Dose-response curves for asenapine vs endogenous trace amines” value (hTA1; M = -5.522) was 78.3008 and 89.6171 and 91.9649 and 78.2527 and 93.1412 and 82.5257, the “Dose-response curves for asenapine vs endogenous trace amines” value (hTA1; M = -6) was 74.2157 and 61.4437 and 71.9149 and 59.67 and 72.4888 and 65.1224 and the “Dose-response curves for asenapine vs endogenous trace amines” value (hTA1; M = -6.522) was 42.6615 and 39.1398 and 48.3901 and 34.5221 and 51.4135 and 39.5962. For the same compound, the “Dose-response curves for asenapine vs endogenous trace amines” value (hTA1; M = -7) was 13.8777 and 16.742 and 21.1088 and 17.6752 and 31.7847 and 17.7865, the “Dose-response curves for asenapine vs endogenous trace amines” value (hTA1; M = -7.522) was 4.58 and 3.454 and 4.252 and 2.943 and 7.126 and 3.989 and the “Dose-response curves for asenapine vs endogenous trace amines” value (hTA1; M = -8) was 2.796 and 3.5 and 3.313 and 3.588 and 4.545 and 4.122. The “Dose-response curves for asenapine vs endogenous trace amines” value (hTA1; M = -8.522) was 0.3075 and 0.6831 and 1.294 and -0.5515 and 0.6503 and 0.4723, the “Dose-response curves for asenapine vs endogenous trace amines” value (hTA1; M = -9) was -0.6786 and 0.2605 and 0.02574 and -1.508 and -0.9298 and -0.774 and the “Dose-response curves for asenapine vs endogenous trace amines” value (hTA1; M = -9.522) was -0.5847 and -0.9603 and -0.3499 and -2.02 and -0.7963 and -1.241. For the same compound, the “Dose-response curves for asenapine vs endogenous trace amines” value (hTA1; M = -10) was -0.1151 and -1.148 and -0.9134 and -1.041 and -0.1064 and -1.063, the “Dose-response curves for asenapine vs endogenous trace amines” value (hTA1; M = -10.522) was -0.3029 and -1.148 and -1.43 and -1.798 and -1.019 and -1.397 and the “Dose-response curves for asenapine vs endogenous trace amines” value (hTA1; M = -11) was -0.209 (3×) and -0.6182 and 0.361 and -0.7518. For the same compound, the “Dose-response curves for asenapine vs endogenous trace amines” value (hTA1; M = -11.522) was 0.0727 and -0.06817 and 0.2605 and -0.7073 and 0.1607 and -0.4179, the “Dose-response curves for asenapine vs endogenous trace amines” value (hTA1; M = -12) was 0.0727 and 1.247 and 0.777 and -1.086 and -0.774 (2×) and the “Dose-response curves for asenapine vs endogenous trace amines” value (hTA1; M = -12.522) was 0.4483 and 0.1197 and 0.3544 and -2.02 and -1.575 and -1.33. The EC50 (hTA1; pEC50 values (Mean), WT hTA1, each line an independent experiment, 3 replicates, Figure 2B source data) was 414 nM and 416 nM, the EC50 (hTA1; pEC50 ± SEM, wt hTA1, HEK293T, n=3) was 417 nM and the EC50 (hTA1; wt hTA1, HEK293T, n=3, read-out: EC50) was 415 nM.
